The record followed here is US12077503B2, “Substituted cyclic amides and their use as herbicides” (FMC CORPORATION, priority 2015, dated 2024).

What all share (type): in vivo
Experiment [1] has as its system giant foxtail (Setaria faberii). Put plainly: Test A preemergence. As to conditions: Setaria faberi, pre-emergence, 240 h, preemergence, read-out: Foxtail, Giant plant response rating; for pest or weed control at 125 g/ha: 125 g ai/ha; for pest or weed control at 500 g/ha: 500 g ai/ha. A digest of the protocol: (§1)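 Preemergence soil spray on seeded pots or post-emergence spray on 1–2 leaf plants, in loam–sand blend. Greenhouse ~10 d. Visual rating 0–100 against untreated plants.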

Experiment [2] concerns Galium (catchweed bedstraw, Galium aparine). Nature of the experiment: Test A postemergence. As to conditions: Galium, post-emergence, 240 h; for pest or weed control at 125 g/ha: 125 g ai/ha. A digest of the protocol:
as §1

For the next experiment, the system named is Kochia (Kochia scoparia). Nature of the experiment: Test A postemergence. As to conditions: Bassia scoparia, post-emergence, 240 h; for pest or weed control at 125 g/ha: 125 g ai/ha. A digest of the protocol:
as §1

Experiment [3] concerns barnyardgrass (Echinochloa crus-galli). Put plainly: Test A postemergence. As to conditions: Echinochloa crus-galli, post-emergence, 240 h; for pest or weed control at 125 g/ha: 125 g ai/ha. A digest of the protocol: as §1
In experiment [4] the test system is blackgrass (Alopecurus myosuroides). Put plainly: Test A postemergence. As to conditions: Alopecurus myosuroides, post-emergence, 240 h; for pest or weed control at 125 g/ha: 125 g ai/ha. A digest of the protocol: as §1
Another experiment concerns corn (Zea mays). Put plainly: Test A postemergence. As to conditions: Zea mays, post-emergence, 240 h. A digest of the protocol: as §1
For experiment [5], the system named is giant foxtail (Setaria faberii). Put plainly: Test A postemergence. As to conditions: Setaria faberi, post-emergence, 240 h; for pest or weed control at 125 g/ha: 125 g ai/ha. A digest of the protocol:
as §1

Experiment [6] deals with pigweed (Amaranthus retroflexus). Put plainly: Test A postemergence. As to conditions: Amaranthus retroflexus, post-emergence, 240 h; for pest or weed control at 125 g/ha: 125 g ai/ha. A digest of the protocol: as §1
Experiment [7] relates to ragweed (common ragweed, Ambrosia elatior). Nature of the experiment: Test A postemergence. As to conditions: Ambrosia artemisiifolia, post-emergence, 240 h; for pest or weed control at 125 g/ha: 125 g ai/ha. A digest of the protocol:
as §1

The test system of experiment [8] is ryegrass, Italian (Italian ryegrass, Lolium multiflorum). Put plainly: Test A postemergence. As to conditions: Lolium multiflorum, post-emergence, 240 h; for pest or weed control at 125 g/ha: 125 g ai/ha. In a few lines: as §1
Experiment [9] deals with wheat (Triticum aestivum). Put plainly: Test A postemergence. As to conditions: Triticum aestivum, post-emergence, 240 h; for plant injury at 125 g/ha: 125 g ai/ha. A digest of the protocol: as §1
Experiment [10] deals with barnyardgrass (Echinochloa crus-galli). Nature of the experiment: Test B flooded paddy test. As to conditions: Echinochloa crus-galli, 250 g ai/ha, Flood, read-out: Barnyardgrass plant response rating. A digest of the protocol:
(§2)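 Percent control, visually estimated after 13–15 d in the greenhouse on a 0–100 basis, compares treated pots with untreated ones; compound was put into paddy water 3 cm above the soil when plants had two leaves.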

Experiment [11] has as its system ducksalad (Heteranthera limosa). Nature of the experiment: Test B flooded paddy test. As to conditions: Heteranthera limosa, 250 g ai/ha, Flood, read-out: Ducksalad plant response rating. In a few lines:
as §2

The next experiment deals with rice (Oryra sativa). Nature of the experiment: Test B flooded paddy test. As to conditions: Oryza sativa, 250 g ai/ha, Flood, read-out: Rice plant response rating. In a few lines: as §2
Experiment [12] relates to sedge, umbrella (small-flower umbrella sedge, Cyperus difformis). Nature of the experiment: Test B flooded paddy test. As to conditions: Cyperus difformis, 250 g ai/ha, Flood, read-out: Sedge, Umbrella plant response rating. In a few lines: as §2
Setting [13] is: 0 to 100 scale where 0 is no effect and 100 is complete control.
Where [14] appears, read: scale of 0 to 100 where 0 is no effect and 100 is complete control.

Structures are written as SMILES. Where two headings read alike, the source gives them in different places.

As to `CN1C[C@H](c2ccc(C#N)cc2)[C@@H](C(=O)Nc2cccc(F)c2F)C1=O` [Compound 1208], the pest or weed control at 125 g/ha was found to be 100% in experiment [1] (visual injury rating, 0 to 100 scale where 0 is no effect and 100 is complete control, approximately 10 d); 40% in experiment [2] (postemergence, visual injury vs untreated controls after approx. 10 d, 0 = no effect, 100 = complete control, read-out: Galium plant response rating (0 to 100 scale)); 70% in the experiment on Kochia (Kochia scoparia) (postemergence, visual injury vs untreated controls after approx. 10 d, 0 = no effect, 100 = complete control, read-out: Kochia plant response rating (0 to 100 scale)); 100% in [3] (postemergence, visual injury vs untreated controls after approx. 10 d, 0 = no effect, 100 = complete control, read-out: Barnyardgrass plant response rating (0 to 100 scale)); 0% in experiment [4] (postemergence, visual injury vs untreated controls after approx. 10 d, 0 = no effect, 100 = complete control, read-out: Blackgrass plant response rating (0 to 100 scale)); 70% in [5] (postemergence, visual injury vs untreated controls after approx. 10 d, 0 = no effect, 100 = complete control, read-out: Foxtail, Giant plant response rating (0 to 100 scale)). Besides, the pest or weed control at 125 g/ha in [6] (postemergence, visual injury vs untreated controls after approx. 10 d, 0 = no effect, 100 = complete control, read-out: Pigweed plant response rating (0 to 100 scale)) stood at 30%; in [7] (postemergence, visual injury vs untreated controls after approx. 10 d, 0 = no effect, 100 = complete control, read-out: Ragweed plant response rating (0 to 100 scale)) it was 0%; in experiment [8] (postemergence, visual injury vs untreated controls after approx. 10 d, 0 = no effect, 100 = complete control, read-out: Ryegrass, Italian plant response rating (0 to 100 scale)), 0%. Besides, the pest or weed control at 500 g/ha in experiment [1] (setting [13]) came out at 100%; in [2] (500 g ai/ha, postemergence, 0 to 100 scale, 0 is no effect, 100 is complete control, read-out: Galium plant response rating), 50%; in the experiment with Kochia (Kochia scoparia) (500 g ai/ha, postemergence, 0 to 100 scale, 0 is no effect, 100 is complete control, read-out: Kochia plant response rating) it was 70%; in experiment [3] (500 g ai/ha, postemergence, 0 to 100 scale, 0 is no effect, 100 is complete control, read-out: Barnyardgrass plant response rating), 100%; in experiment [4] (500 g ai/ha, postemergence, 0 to 100 scale, 0 is no effect, 100 is complete control, read-out: Blackgrass plant response rating), 0%; in [5] (500 g ai/ha, postemergence, 0 to 100 scale, 0 is no effect, 100 is complete control, read-out: Foxtail, Giant plant response rating) it was 90%. The pest or weed control at 500 g/ha in [6] (500 g ai/ha, postemergence, 0 to 100 scale, 0 is no effect, 100 is complete control, read-out: Pigweed plant response rating) came out at 60%; in experiment [7] (500 g ai/ha, postemergence, 0 to 100 scale, 0 is no effect, 100 is complete control, read-out: Ragweed plant response rating), 40%; in [8] (500 g ai/ha, postemergence, 0 to 100 scale, 0 is no effect, 100 is complete control, read-out: Ryegrass, Italian plant response rating), 0%. For the same compound, the plant injury at 125 g/ha in the experiment on corn (Zea mays) (125 g ai/ha, postemergence, visual injury vs untreated controls after approx. 10 d, 0 = no effect, 100 = complete control, read-out: Corn plant response rating (0 to 100 scale)) was found to be 20%; in [9] (postemergence, visual injury vs untreated controls after approx. 10 d, 0 = no effect, 100 = complete control, read-out: Wheat plant response rating (0 to 100 scale)) it was 0%. Also, the plant injury at 500 g/ha in the experiment on corn (Zea mays) (500 g ai/ha, postemergence, 0 to 100 scale, 0 is no effect, 100 is complete control, read-out: Corn plant response rating) came out at 50%; in experiment [9] (500 g ai/ha, postemergence, 0 to 100 scale, 0 is no effect, 100 is complete control, read-out: Wheat plant response rating), 20%. For the same compound, the pest or weed control at 250 g/ha in [10] (setting [13]) is 45%; in experiment [11] (setting [13]), 95%; in the experiment on rice (Oryra sativa) (setting [13]), 15%; in experiment [12] (setting [13]), 0%.
Take `Cc1cccc(NC(=O)[C@H]2C(=O)N(C)C[C@@H]2c2ccc(C(F)(F)F)cc2)c1C` [Compound 941]: the pest or weed control at 125 g/ha in experiment [1] (setting [13]) is 90%; in experiment [2] (Postemergence, visual injury after approximately 10 d, 0 to 100 scale where 0 is no effect and 100 is complete control, read-out: Plant response rating, Galium), 20%; in the experiment on Kochia (Kochia scoparia) (Postemergence, visual injury after approximately 10 d, 0 to 100 scale where 0 is no effect and 100 is complete control, read-out: Plant response rating, Kochia), 0%; in [3] (Postemergence, visual injury after approximately 10 d, 0 to 100 scale where 0 is no effect and 100 is complete control, read-out: Plant response rating, Barnyardgrass) it was 50%; in experiment [4] (Postemergence, visual injury after approximately 10 d, 0 to 100 scale where 0 is no effect and 100 is complete control, read-out: Plant response rating, Blackgrass) it was 0%; in experiment [5] (Postemergence, visual injury after approximately 10 d, 0 to 100 scale where 0 is no effect and 100 is complete control, read-out: Plant response rating, Foxtail, Giant), 60%. The pest or weed control at 125 g/ha in experiment [6] (Postemergence, visual injury after approximately 10 d, 0 to 100 scale where 0 is no effect and 100 is complete control, read-out: Plant response rating, Pigweed) was 0%; in experiment [7] (Postemergence, visual injury after approximately 10 d, 0 to 100 scale where 0 is no effect and 100 is complete control, read-out: Plant response rating, Ragweed) it was 0%; in experiment [8] (Postemergence, visual injury after approximately 10 d, 0 to 100 scale where 0 is no effect and 100 is complete control, read-out: Plant response rating, Ryegrass, Italian), 0%. Moreover, the pest or weed control at 500 g/ha in [1] (visual injury rating about 10 d after treatment, 0 to 100 scale (0 no effect, 100 complete control)) worked out at 90%. For the same compound, the Corn plant response rating (crop injury, 0 = no effect, 100 = complete kill) at 125 g/ha in the experiment on corn (Zea mays) (125 g ai/ha, Postemergence, visual injury after approximately 10 d, 0 to 100 scale where 0 is no effect and 100 is complete control) came out at 0%. In addition, the plant injury at 125 g/ha in experiment [9] (Postemergence, visual injury after approximately 10 d, 0 to 100 scale where 0 is no effect and 100 is complete control, read-out: Plant response rating, Wheat) was determined as 0%. The pest or weed control at 250 g/ha in experiment [10] (setting [14]) is 0%; in [11] (setting [14]) it was 35%; with rice (Oryra sativa) (setting [14]), 0%; in experiment [12] (setting [14]), 0%.
